According to publication PMC7777204, “Locking mixed-lineage kinase domain-like protein in its auto-inhibited state prevents necroptosis” (Proceedings of the National Academy of Sciences of the …, 2020):

Test system: Jurkat FADD−/− cells
Assay: Jurkat FADD−/− necroptosis assay
Type: cell-based
Details: Homo sapiens, 10 ng/mL huTNFα, 24 h, Cell Titer Glo viability, read-out: Jurkat NEC IC50
Procedure: (§1) For the Jurkat FADD^−/− Necroptosis assay, compounds were serially diluted in 100% dimethyl sulfoxide (DMSO) (Sigma-Aldrich catalog no. 41641), and 250 nL was transferred to a sterile 384-well microtiter plate (PerkinElmer catalog no. 6007688) via Echo liquid handler (LABCYTE). Five thousand Jurkat FADD ^−/− cells (ATCC catalog no. CRL-2572) in 20 µL of modified Roswell Park Memorial Institute medium (Gibco catalog no. 10491), 10% fetal calf serum (Gibco catalog no. 100500), 1x Anti/Anti (Gibco catalog no. 15240-062), 1x L-Glutamax (Gibco catalog no. 35050-087), and 1% PenStrep (SIGMA catalog no. P4333) were seeded into each well of the prepared assay plate with compound. Cells and compounds were incubated for 30 min at 37 °C (humidified incubator with 5% CO2). After incubation, 5 µL of recombinant human TNFα (huTNFα) (Biotrend catalog no. cyt-223; 10 ng/mL final concentration [f.c.]) was added to the cells, followed by an incubation of 24 h at 37 °C. Following the incubation, the experimental plates were equilibrated to room temperature (30 min) before 25 µL of Cell Titer Glo Luminescent Cell Viability Assay System reagent (Promega catalog no. G7571) was added to the plate wells, incubated at room temperature for ∼10 min. After incubation, the samples were analyzed for luminescence by using an Envision reader (PerkinElmer).
(§2) Each assay plate contained wells with “high” and “low” controls. High controls (100% CTL) were defined as cells treated with DMSO, and low controls (0% CTL) were defined as cells treated with 10 ng/mL recombinant huTNFα. IC50 values were calculated based on the percentage of control values using a four-parameter-fitting model.
(§3) All cellular assays were done for Cpd 1, Cpd 2, Cpd 3, Cpd 4, and Cpd 5 in duplicate and in quadruplet for NSA.

SMILES | IC50 [µM]
Cn1c(=O)c2c(nc(S(C)(=O)=O)n2C)n(C)c1=O [Cpd 1] | 0.574
COCCOCn1c(S(C)(=O)=O)nc2c1c(=O)n(C)c(=O)n2C [Cpd 2] | 0.069
Cn1c(=O)c2c(nc([S+](C)[O-])n2C)n(C)c1=O (centres unmarked) [Cpd 4] | 5.24
CSc1nc2c(c(=O)n(C)c(=O)n2C)n1C [Cpd 5] | > 100
COc1nccnc1NS(=O)(=O)c1ccc(NC(=O)/C=C/c2ccc([N+](=O)[O-])s2)cc1 [NSA, Necrosulfonamide] | 1.4

Target: T1, human MLKL executioner domain (WT) (Homo sapiens, UniProt Q8NB16)
T1 construct: 80 µM MLKL N-terminal executioner domain (residues 1 to 154) was used; GST (thrombin cleavage site) (cleaved yes)
T1 sequence (Q8NB16 1-154): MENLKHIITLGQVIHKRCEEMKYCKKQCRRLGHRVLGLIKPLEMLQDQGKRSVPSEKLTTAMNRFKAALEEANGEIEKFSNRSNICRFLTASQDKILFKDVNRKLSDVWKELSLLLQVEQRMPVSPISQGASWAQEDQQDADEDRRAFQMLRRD
Assay: Functional NMR assay (detachment of α-helix 6), WT
Type: biochemical
Details: WT MLKL:NSA complex (200 µM NSA), addition of 12 mM NM and 500 µM IP6
From the text: To test the significance of the additional interaction between α-helix 6 and the four-helix bundle provided by the xanthine compounds stacking to the phenyl ring of Phe148, we used a described functional NMR assay ([12]). Binding of phytic acid (IP6) and the detergent β-D-nonylmaltoside (NM) led to the detachment of α-helix 6, which can be monitored in ^1H,^15N-correlation spectra by the altered chemical shift of the Hε1–Nε1 correlation of Trp133 and the backbone N–H correlation of Ala141 ([12]). […] Adding 12 mM NM or 500 µM IP6 led to the appearance of a second very weak peak reporting on the detached α-helix 6 with a population of the activated state (pact) of 1% and 4%, respectively (Fig. 3). […] Combining 12 mM NM and 500 µM IP6 induced a dramatic increase of the population of the detached state (pact 86%). […] To further validate the importance of the π–π stacking interaction between the xanthine and Phe148 in α-helix 6, we carried out the functional NMR assay with the F148A-mutated variant of MLKL. The removal of the phenyl group induced significant CSPs localized in close proximity to the mutation site, due to the removal of ring currents and, therefore, strong electronic changes. […] MLKL F148A was more sensitive to the addition of 12 mM NM, 500 µM IP6, or the combination thereof. In the spectra in the presence of NM and the combination of NM and IP6, a third Trp133 peak appeared, most likely reporting on a state similar to the active state. […] Thus, the stacking interaction of the xanthine core to Phe148 is vital for the inhibitory activity of these MLKL inhibitors.
Fig. 3. (A and B) The region of the NMR ^1H,^15N-correlation spectra of the MLKL executioner domain (protein concentration: 80 µM) containing the cross-peaks of Trp133 Nε1–Hε1 in the auto-inhibited state where α-helix 6 is attached to the four-helix bundle (inact. state) and in the active, detached state (act. state) are shown. The unliganded state is depicted in black, with 12 mM NM in cyan; 500 µM IP6 in orange; 500 µM Cpd 3 in blue; 12 mM NM and 500 µM IP6 in red; and 12 mM NM, 500 µM IP6, and 500 µM Cpd 3 in green. The spectra depicted in A are measured with the WT protein and in B with the F148A variant. […] Dark gray bars correspond to the WT, while light gray bars correspond to the F148A variant. The asterisk means that no active conformation could be detected. Double asterisks indicate data not determined.
For the functional NMR assay ^1H,^15N-correlation spectra were recorded on a Bruker Avance III HD 600-MHz NMR spectrometer equipped with a cryogenic QCI probe in 2.5-mm NMR tubes at 298 K. Spectra were recorded with 64 complex points in the indirect dimension, 96 scans, and an interscan delay of 2 s. For the samples, 80 µM MLKL N-terminal executioner domain (residues 1 to 154) was used in a 20 mM sodium phosphate buffer at pH 7.5 containing 150 mM sodium chloride and 1 mM TCEP. For the different conditions, either 500 µM IP6, 12 mM NM, or a combination of the two were used. The xanthine compounds were tested at 500 µM, while NSA, due to limited solubility, was tested only at 200 µM, which is sufficient to saturate MLKL. Spectra were analyzed, and peaks were integrated in CcpNnmr analysis ([39]).

SMILES | Effect on α-helix 6 detachment, in words
COc1nccnc1NS(=O)(=O)c1ccc(NC(=O)/C=C/c2ccc([N+](=O)[O-])s2)cc1 [NSA, Necrosulfonamide] | complete population shift to the active α-helix detached state

Same assay, conditions: WT, 12 mM NM + 500 µM IP6 + 500 µM xanthine compound, compared with Cpd 3 (Fig. 3C)

SMILES | Inhibitory effect on MLKL activation (α-helix 6 detachment), in words
Cn1c(=O)c2c(nc(S(C)(=O)=O)n2C)n(C)c1=O [Cpd 1] | even less activated
COCCOCn1c(S(C)(=O)=O)nc2c1c(=O)n(C)c(=O)n2C [Cpd 2] | even less activated
Cn1c(=O)c2c(nc([S+](C)[O-])n2C)n(C)c1=O (centres unmarked) [Cpd 4] | significantly reduced
CSc1nc2c(c(=O)n(C)c(=O)n2C)n1C [Cpd 5] | abolished

Same assay, conditions: WT, 12 mM NM alone or 500 µM IP6 alone

SMILES | Population of the activated state (pact), α-helix 6 detached [%]
O=P(O)(O)O[C@H]1[C@H](OP(=O)(O)O)[C@@H](OP(=O)(O)O)[C@H](OP(=O)(O)O)[C@@H](OP(=O)(O)O)[C@H]1OP(=O)(O)O [IP6, phytic acid] | 4
CCCCCCCCCO[C@@H]1O[C@H](CO)[C@@H](O[C@H]2O[C@H](CO)[C@@H](O)[C@H](O)[C@H]2O)[C@H](O)[C@H]1O [NM, β-D-nonylmaltoside] | 1

Same assay, conditions: WT, compound alone (Cpd 3 500 µM, NSA 200 µM), no NM/IP6

SMILES | Induction of the active state by compound alone
COc1nccnc1NS(=O)(=O)c1ccc(NC(=O)/C=C/c2ccc([N+](=O)[O-])s2)cc1 [NSA, Necrosulfonamide] | α-helix 6 remains in the attached auto-inhibitory state

Test system: U937 cells
Assay: U937 cytotox assay
Type: cell-based
Details: Homo sapiens, U-937, without huTNFα and zVAD-fmk, read-out: U937 TOX IC50
Procedure: (§4) MLKL antagonists were also evaluated in a necroptosis assay with U937 cells ([26]) (ATCC catalog no. CRL-1593.2). The assay procedure with U937 cells was as described for the Jurakt FADD^−/− necroptosis assay with the following modifications: 8,000 cells were seeded per well, and, in addition to the recombinant huTNFα, cells were also incubated in the presence of 10 µM (f.c.) carbobenzoxy-valyl-alanyl-aspartyl-[O-methyl]-fluoromethylketone (zVAD-fmk) (Enzo Life Sciences catalog no. ALX-260-020). Low controls (0% CTL) were defined as cells treated with 100 ng/mL recombinant huTNFα plus 10 µM zVAD-fmk.
(§5) MLKL antagonists were tested in cytotox assays by using Jurkat FADD^−/− and U937 cells according to the assay procedures described for the necroptosis assays, but without treatment with recombinant huTNFα and/or zVAD-fmk. High controls (100% CTL, no effect) were defined as cells treated with DMSO, and low controls (0% CTL) were defined as medium without cells (0% CTL, maximal effect).
as §3

SMILES | IC50 [µM]
Cn1c(=O)c2c(nc(S(C)(=O)=O)n2C)n(C)c1=O [Cpd 1] | > 100
COCCOCn1c(S(C)(=O)=O)nc2c1c(=O)n(C)c(=O)n2C [Cpd 2] | 4.38
Cn1c(=O)c2c(nc([S+](C)[O-])n2C)n(C)c1=O (centres unmarked) [Cpd 4] | > 100
CSc1nc2c(c(=O)n(C)c(=O)n2C)n1C [Cpd 5] | > 100
COc1nccnc1NS(=O)(=O)c1ccc(NC(=O)/C=C/c2ccc([N+](=O)[O-])s2)cc1 [NSA, Necrosulfonamide] | 14.7

Test system: U937 cells
Assay: U937 apoptosis assay
Type: cell-based
Details: Homo sapiens, U-937, 100 ng/mL huTNFα plus 3 µM NSA, read-out: U937 APOP IC50
Procedure: as §4
Furthermore, MLKL antagonists were tested in a U937 apoptosis assay in the presence of 3 µM (f.c.) NSA (Tocris catalog no. 5025) and 100 ng/mL (f.c.) recombinant huTNFα in the same way as described for the U937 necroptosis assay. Low controls (0% CTL) were defined as cells treated with 100 ng/mL recombinant huTNFα plus 3 µM NSA.
as §3

SMILES | IC50 [µM]
Cn1c(=O)c2c(nc(S(C)(=O)=O)n2C)n(C)c1=O [Cpd 1] | > 100
COCCOCn1c(S(C)(=O)=O)nc2c1c(=O)n(C)c(=O)n2C [Cpd 2] | > 100
Cn1c(=O)c2c(nc([S+](C)[O-])n2C)n(C)c1=O (centres unmarked) [Cpd 4] | > 100
CSc1nc2c(c(=O)n(C)c(=O)n2C)n1C [Cpd 5] | > 100
COc1nccnc1NS(=O)(=O)c1ccc(NC(=O)/C=C/c2ccc([N+](=O)[O-])s2)cc1 [NSA, Necrosulfonamide] | > 100

Test system: Jurkat FADD−/− cells
Assay: Jurkat FADD−/− cytotox assay
Type: cell-based
Details: Homo sapiens, without huTNFα, Cell Titer Glo viability, read-out: Jurkat TOX IC50
Procedure: as §1, §5, §3

SMILES | IC50 [µM]
Cn1c(=O)c2c(nc(S(C)(=O)=O)n2C)n(C)c1=O [Cpd 1] | 56.3
COCCOCn1c(S(C)(=O)=O)nc2c1c(=O)n(C)c(=O)n2C [Cpd 2] | 3.83
Cn1c(=O)c2c(nc([S+](C)[O-])n2C)n(C)c1=O (centres unmarked) [Cpd 4] | > 100
CSc1nc2c(c(=O)n(C)c(=O)n2C)n1C [Cpd 5] | > 100
COc1nccnc1NS(=O)(=O)c1ccc(NC(=O)/C=C/c2ccc([N+](=O)[O-])s2)cc1 [NSA, Necrosulfonamide] | 6.2

Test system: C86S-mutated MLKL
Assay: not given
Details: cited from earlier work

SMILES | Activity in MLKL knockout cells transfected with C86S-mutated MLKL
Cn1c(=O)c2c(nc(S(C)(=O)=O)n2C)n(C)c1=O [Cpd 1] | hampered
COCCOCn1c(S(C)(=O)=O)nc2c1c(=O)n(C)c(=O)n2C [Cpd 2] | hampered

Test system: U937 cells
Assay: U937 necroptosis assay
Type: cell-based
Details: Homo sapiens, U-937, huTNFα plus 10 µM zVAD-fmk, read-out: U937 NEC IC50
Procedure: as §1, §2, §4, §3

SMILES | IC50 [µM]
Cn1c(=O)c2c(nc(S(C)(=O)=O)n2C)n(C)c1=O [Cpd 1] | 0.312
COCCOCn1c(S(C)(=O)=O)nc2c1c(=O)n(C)c(=O)n2C [Cpd 2] | 0.042
Cn1c(=O)c2c(nc([S+](C)[O-])n2C)n(C)c1=O (centres unmarked) [Cpd 4] | 3.17
CSc1nc2c(c(=O)n(C)c(=O)n2C)n1C [Cpd 5] | > 100
COc1nccnc1NS(=O)(=O)c1ccc(NC(=O)/C=C/c2ccc([N+](=O)[O-])s2)cc1 [NSA, Necrosulfonamide] | 0.454
